Results as given in US20040110228A1, “Combinatorial organic synthesis of unique biologically active compounds” (priority 2002, published 2004).
Where a SMILES comes first, the peptide text is derived from it. Where no end group is shown, it is not given here. [ ]: non-standard residue; d: D form. ξ: configuration not given here. ξW = NC(Cc1c[nH]c2ccccc12)C(=O)O; dTic = O=C(O)[C@H]1Cc2ccccc2CN1; Tic = O=C(O)[CH]1Cc2ccccc2CN1; ξF = NC(Cc1ccccc1)C(=O)O

Key:
[1] = target: T1, Int protein (Escherichia phage lambda, UniProt P03700); conditions: Cassell et al. 2000; cited from earlier work
[2] = tested on: Holliday junction (HJ) intermediate; experiment: in vitro Holliday junction trapping assay (recombination of radiolabeled and unlabeled DNA substrates); format: biochemical; conditions: 0.01 mg/ml concentrations of peptides; FIG. 56
Experimental: The eight macrocyclic compounds shown in FIGS. 55 were tested for their ability to bind to the HJ in an in vitro assay. The assay employs a recombination reaction between one radiolabeled double-stranded DNA substrate and an unlabeled partner DNA substrate. Successful recombination gives recombination products and very small amounts of HJ intermediate. A previously identified linear peptide dimer of […] was used as a positive control because it was known to accumulate HJs, as described in […] et al., 2000, supra). During the recombination reaction, two initial DNA cleavage and ligation reactions must take place to form the junction, and two subsequent DNA cleavage and ligation reactions resolve the HJs into double stranded recombination products.

[3] = tested on: Bare Lymphocyte Syndrome (BLS) cell line; format: cell-based
Experimental: Toxicity of peptides KWWCRW and WKHYNY was determined by testing the inhibition of a eukaryotic cell line using a vital stain. The peptides were determined to not be cytotoxic in a non-adherent eukaryotic cell line, Bare Lymphocyte Syndrome (BLS), at concentrations below 250 mg/ml. (Allicotti et al, Manuscript in Preparation). The MTT cytotoxicity assay was used to measure cytotoxicity of the class B synergimycin compounds (Mosmann, Immunol. Methods 65:55-63 (1983)). In this assay, 3-(4,5-dimethylthiazol-2-yl)-2,5-diphenyl tetrazolium bromide (MTT) is converted by live cells into the purple compound formazan. The amount of formazan produced is measured at OD570. The absorbance of the sample wells is compared to the absorbance of the control wells. The readings are used to calculate an IC50 for each peptide. This value represents the concentration of each peptide that reduces the growth of the BLS cells to 50% of the maximum growth measured in the controls.

[4] = target: T1, Int protein; experiment: in vitro recombination reaction catalysed by the Int protein (attL/attR substrates, gel); format: biochemical
[5] = tested on: Salmonella typhimurium; experiment: cell growth assay (OD600); format: cell-based; conditions: Salmonella enterica serovar Typhimurium Ames strain and LT2 strain; peptides in the medium
[6] = tested on: bacterial strains, both gram positive and gram negative; experiment: growth inhibition assays in microtiter plates (cell density at 600 nm); format: cell-based; conditions: 101 μg/ml and 100 μg/ml; FIG. 57
Experimental: The eight macrocyclic compounds shown in FIGS. 55 were tested for their ability to bind to the HJ and inhibit bacterial growth in an in vivo assay. Growth inhibition assays were performed in microtiter plates, by comparing the growth of bacteria in the presence and absence of compounds. Cell density at 600 nm was determined for a series of bacterial strains, both gram positive and gram negative, in the presence and absence of macrocyclic compounds. […] Measurements were taken using a BioRad microtiter plate reader. […] The diluted cultures were shaken at 37° C. and optical densities were measured at 30-minute intervals in order to follow their growth. […]
In order to test the inhibitory potency of the peptides, cell growth assays were performed. […] The cell growth assays were performed in microtiter plates; measurements are taken using a BioRad microtiter plate reader.
Overnight bacterial cultures were diluted 1:20 into media and each test compound was added in no more than 10% of the volume of the final suspension. […] The diluted cultures were shaken at 37° C. and optical densities were measured at 30 minute intervals to follow their growth. […]
Four linear heptamers prepared according to FIGS. 63 were tested for their bacteria growth inhibition. […] Measurements were taken using a BioRad microtiter plate reader. […]

T1 sequence (P0A6Y1 whole entry): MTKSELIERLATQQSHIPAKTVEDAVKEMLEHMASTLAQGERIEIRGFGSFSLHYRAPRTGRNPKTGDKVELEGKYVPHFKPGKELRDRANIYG
T1 sequence (P03699 whole entry, further chain): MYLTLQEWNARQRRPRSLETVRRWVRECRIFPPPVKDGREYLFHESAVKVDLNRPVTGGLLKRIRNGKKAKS
T1 sequence (P0A6X7 whole entry, further chain): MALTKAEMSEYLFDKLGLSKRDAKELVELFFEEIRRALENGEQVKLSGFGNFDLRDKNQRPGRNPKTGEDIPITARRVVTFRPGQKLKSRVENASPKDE
T1 sequence (P03700 whole entry): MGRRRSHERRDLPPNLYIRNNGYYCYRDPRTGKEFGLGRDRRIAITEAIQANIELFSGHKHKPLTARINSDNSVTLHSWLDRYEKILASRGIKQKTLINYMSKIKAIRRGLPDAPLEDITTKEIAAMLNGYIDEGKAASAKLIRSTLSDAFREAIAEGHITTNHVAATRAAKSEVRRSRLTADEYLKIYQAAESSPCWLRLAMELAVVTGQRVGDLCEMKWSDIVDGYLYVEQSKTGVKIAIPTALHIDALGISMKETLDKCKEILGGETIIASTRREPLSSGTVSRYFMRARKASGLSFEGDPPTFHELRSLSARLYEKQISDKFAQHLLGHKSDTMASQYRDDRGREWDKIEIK

## TrpLys(His or Ala)TyrAsnTyr [WK(HorA)YNY]
[1]
  potency among Holliday junction-stabilizing peptide families: the most potent

## O=C1NC(Cc2ccccc2)C(=O)N2Cc3ccccc3CC2C(=O)NC(Cc2ccccc2)C(=O)NC(Cc2ccccc2)C(=O)N2Cc3ccccc3CC2C(=O)NC1Cc1ccccc1 (stereo not shown) [A] (cyclo(FF[Tic]FF[Tic]); configuration not given here)
[2]
  accumulation of HJ intermediates / binding to the HJ: particularly active

## KWWCRW [KWWCRW, LysTrpTrpCysArgTrp]
[3]
  concentrations at which not cytotoxic: below 250 mg/ml

## WRWYCR [WRWYCR, TrpArgTrpTyrCysArg]
[4]
  potency among peptides of a screen for site-specific recombination inhibitors: the most potent
[5]
  inhibition of bacterial cell growth, FIG. 12: inhibition of bacterial cell growth

## O=C1NC(Cc2ccccc2)C(=O)N2Cc3ccccc3C[C@@H]2C(=O)NC(Cc2ccccc2)C(=O)NC(Cc2ccccc2)C(=O)N2Cc3ccccc3C[C@@H]2C(=O)NC1Cc1ccccc1 (stereo partly shown) [D] (cyclo([dTic][ξF][ξF][dTic][ξF][ξF]))
[2]
  accumulation of HJ intermediates / binding to the HJ: particularly active

## O=C1NC(Cc2c[nH]c3ccccc23)C(=O)N2Cc3ccccc3CC2C(=O)NC(Cc2ccccc2)C(=O)NC(Cc2c[nH]c3ccccc23)C(=O)N2Cc3ccccc3CC2C(=O)NC1Cc1ccccc1 (stereo not shown) [B] (cyclo(FW[Tic]FW[Tic]); configuration not given here)
[2]
  accumulation of HJ intermediates / binding to the HJ: particularly active

## WKHYNY [WKHYNY]
[3]
  concentrations at which not cytotoxic: below 250 mg/ml

## O=C1CNC(=O)C(Cc2c[nH]c3ccccc23)NC(=O)C(Cc2ccccc2)NC(=O)CNC(=O)C(Cc2c[nH]c3ccccc23)NC(=O)C(Cc2ccccc2)N1 (stereo not shown) [H] (cyclo(GFWGFW); configuration not given here)
[6]
  bacterial growth inhibition by macrocyclic compounds: greatest level of activity

## O=C1NC(Cc2c[nH]c3ccccc23)C(=O)N2Cc3ccccc3C[C@@H]2C(=O)NC(Cc2ccccc2)C(=O)NC(Cc2c[nH]c3ccccc23)C(=O)N2Cc3ccccc3C[C@@H]2C(=O)NC1Cc1ccccc1 (stereo partly shown) [E] (cyclo([dTic][ξF][ξW][dTic][ξF][ξW]))
[2]
  accumulation of HJ intermediates / binding to the HJ: particularly active
